Assay results as given in PMC5218480 (PLoS ONE, 2017).

Test system: MV-4-11 cells
Assay: Gene expression microarray analysis (Affymetrix PrimeView) and GSEA
Format: cell-based, human
Parameters: RFU PODN (11730768_x_at) / Fold change /veh PODN (11730768_x_at) / RFU LINC00158 (11744669_a_at) / Fold change /veh LINC00158 (11744669_a_at) / RFU DUSP10 (11751237_a_at) / Fold change /veh DUSP10 (11751237_a_at) / RFU ID3 (11757404_x_at) / Fold change /veh ID3 (11757404_x_at) / RFU PLEKHG5 (11737974_s_at) / Fold change /veh PLEKHG5 (11737974_s_at) / RFU LRRC4B (11730491_at) / Fold change /veh LRRC4B (11730491_at) / RFU GIMAP4 (11747438_a_at) / Fold change /veh GIMAP4 (11747438_a_at) / RFU KRT8 (11758183_x_at) / Fold change /veh KRT8 (11758183_x_at) / RFU CNN1 (11734310_a_at) / Fold change /veh CNN1 (11734310_a_at) / RFU VPS37D (11726825_at) / Fold change /veh VPS37D (11726825_at) / RFU C10orf10 (11716522_x_at) / Fold change /veh C10orf10 (11716522_x_at) / RFU KIR2DL2 /// KIR2DL4 /// KIR2DL5A /// KIR2DL5B /// KIR2DS1 /// KIR2DS2 /// KIR2DS3 /// KIR2DS4 /// KIR3DL3 /// KIR3DL3 /// KIR3DS1 (11738374_at) / Fold change /veh KIR2DL2 /// KIR2DL4 /// KIR2DL5A /// KIR2DL5B /// KIR2DS1 /// KIR2DS2 /// KIR2DS3 /// KIR2DS4 /// KIR3DL3 /// KIR3DL3 /// KIR3DS1 (11738374_at) / RFU C1QL1 (11718748_at) / Fold change /veh C1QL1 (11718748_at) / RFU TMPRSS4 (11747572_a_at) / Fold change /veh TMPRSS4 (11747572_a_at) / RFU HAMP (11756126_x_at) / Fold change /veh HAMP (11756126_x_at) / RFU RNFT2 (11725882_a_at) / Fold change /veh RNFT2 (11725882_a_at) / RFU NR4A2 (11747474_a_at) / Fold change /veh NR4A2 (11747474_a_at) / RFU ABCC12 (11746883_a_at) / Fold change /veh ABCC12 (11746883_a_at) / RFU TMEM136 (11760407_x_at) / Fold change /veh TMEM136 (11760407_x_at) / RFU CLDN22 /// WWC2 (11732394_at) / Fold change /veh CLDN22 /// WWC2 (11732394_at) / RFU HLA-DPB1 (11760878_x_at) / Fold change /veh HLA-DPB1 (11760878_x_at) / RFU SPINT1 (11716480_a_at) / Fold change /veh SPINT1 (11716480_a_at) / RFU GAP43 (11754022_s_at) / Fold change /veh GAP43 (11754022_s_at) / RFU A4GNT (11735810_at) / Fold change /veh A4GNT (11735810_at) / RFU PRB3 (11715151_x_at) / Fold change /veh PRB3 (11715151_x_at) / RFU TUBB4B (11761932_at) / Fold change /veh TUBB4B (11761932_at) / RFU CAPN14 (11732068_a_at) / Fold change /veh CAPN14 (11732068_a_at) / RFU TMCC2 (11721928_a_at) / Fold change /veh TMCC2 (11721928_a_at) / RFU IRGQ (11745062_a_at) / Fold change /veh IRGQ (11745062_a_at) / RFU FAM174B (11720279_a_at) / Fold change /veh FAM174B (11720279_a_at) / RFU TMPRSS4 (11748680_a_at) / Fold change /veh TMPRSS4 (11748680_a_at) / RFU FAM212B (11763350_a_at) / Fold change /veh FAM212B (11763350_a_at) / RFU PLEKHG5 (11743358_a_at) / Fold change /veh PLEKHG5 (11743358_a_at) / RFU ZSCAN30 (11745921_a_at) / Fold change /veh ZSCAN30 (11745921_a_at) / RFU CMKLR1 (11741424_a_at) / Fold change /veh CMKLR1 (11741424_a_at) / RFU LOC101060620 /// MAPK8IP1 (11723275_at) / Fold change /veh LOC101060620 /// MAPK8IP1 (11723275_at) / RFU SPTSSB (11747773_x_at) / Fold change /veh SPTSSB (11747773_x_at) / RFU PRSS12 (11739890_at) / Fold change /veh PRSS12 (11739890_at) / RFU BIN1 (11741810_x_at) / Fold change /veh BIN1 (11741810_x_at) / RFU WNT11 (11732464_a_at) / Fold change /veh WNT11 (11732464_a_at) / RFU C10orf10 (11716521_a_at) / Fold change /veh C10orf10 (11716521_a_at) / RFU C5orf56 (11738089_at) / Fold change /veh C5orf56 (11738089_at) / RFU CYB561 (11721691_x_at) / Fold change /veh CYB561 (11721691_x_at) / RFU ANKRD19P (11752326_a_at) / Fold change /veh ANKRD19P (11752326_a_at) / RFU OR2T12 /// OR2T33 /// OR2T8 (11738714_s_at) / Fold change /veh OR2T12 /// OR2T33 /// OR2T8 (11738714_s_at) / RFU VCAN (11748164_a_at) / Fold change /veh VCAN (11748164_a_at) / RFU JSRP1 (11732532_at) / Fold change /veh JSRP1 (11732532_at) / RFU KRTAP10-11 (11738290_x_at) / Fold change /veh KRTAP10-11 (11738290_x_at) / RFU MYO3A (11730013_a_at) / Fold change /veh MYO3A (11730013_a_at) / RFU EBF3 (11725865_a_at) / Fold change /veh EBF3 (11725865_a_at) / RFU CAMK2N1 (11719241_x_at) / Fold change /veh CAMK2N1 (11719241_x_at) / RFU C5orf56 (11738088_a_at) / Fold change /veh C5orf56 (11738088_a_at) / RFU OLFML3 (11715873_a_at) / Fold change /veh OLFML3 (11715873_a_at) / RFU LOC100653217 /// NTM (11731650_a_at) / Fold change /veh LOC100653217 /// NTM (11731650_a_at) / RFU MAPK11 (11762145_a_at) / Fold change /veh MAPK11 (11762145_a_at) / RFU FIZ1 (11724087_x_at) / Fold change /veh FIZ1 (11724087_x_at) / RFU OASL (11726364_x_at) / Fold change /veh OASL (11726364_x_at) / RFU SOX15 (11748057_x_at) / Fold change /veh SOX15 (11748057_x_at) / RFU CD79A (11719716_a_at) / Fold change /veh CD79A (11719716_a_at) / RFU HIST1H1D (11736915_at) / Fold change /veh HIST1H1D (11736915_at) / RFU CASKIN2 (11723855_a_at) / Fold change /veh CASKIN2 (11723855_a_at) / RFU LOC730098 (11760151_x_at) / Fold change /veh LOC730098 (11760151_x_at) / RFU OR4N2 (11742367_at) / Fold change /veh OR4N2 (11742367_at) / RFU PRRT2 (11749266_a_at) / Fold change /veh PRRT2 (11749266_a_at) / RFU SNX32 (11753110_a_at) / Fold change /veh SNX32 (11753110_a_at) / RFU CDHR5 (11726645_a_at) / Fold change /veh CDHR5 (11726645_a_at) / RFU RCAN1 (11760418_a_at) / Fold change /veh RCAN1 (11760418_a_at) / RFU FAM167A (11723789_a_at) / Fold change /veh FAM167A (11723789_a_at) / RFU FAM26E (11764081_at) / Fold change /veh FAM26E (11764081_at) / RFU ISYNA1 (11749810_s_at) / Fold change /veh ISYNA1 (11749810_s_at) / RFU ACY1 (11761880_at) / Fold change /veh ACY1 (11761880_at) / RFU 11764098_at / Fold change /veh 11764098_at / RFU SAMD14 (11745864_x_at) / Fold change /veh SAMD14 (11745864_x_at) / RFU NPB (11741838_a_at) / Fold change /veh NPB (11741838_a_at) / RFU TMPRSS6 (11731388_a_at) / Fold change /veh TMPRSS6 (11731388_a_at) / RFU KRTAP10-2 (11738614_at) / Fold change /veh KRTAP10-2 (11738614_at) / RFU ARHGAP8 /// PRR5-ARHGAP8 (11727945_x_at) / Fold change /veh ARHGAP8 /// PRR5-ARHGAP8 (11727945_x_at) / RFU KRTAP5-7 /// NADSYN1 (11734609_at) / Fold change /veh KRTAP5-7 /// NADSYN1 (11734609_at) / RFU RASL12 (11751679_a_at) / Fold change /veh RASL12 (11751679_a_at) / RFU CDKN2B (11736163_a_at) / Fold change /veh CDKN2B (11736163_a_at) / RFU PRF1 (11729649_at) / Fold change /veh PRF1 (11729649_at) / RFU, ZNF638 /// ZNF638-IT1 / Fold change vs veh, ZNF638 /// ZNF638-IT1 / RFU, PANK3 / Fold change vs veh, PANK3 / RFU, SH3YL1 / Fold change vs veh, SH3YL1 / RFU, ZEB2 / Fold change vs veh, ZEB2 / RFU, NRIP1 / Fold change vs veh, NRIP1 / RFU, PTTG1IP / Fold change vs veh, PTTG1IP / RFU, CAPN2 / Fold change vs veh, CAPN2 / RFU, MED14 / Fold change vs veh, MED14 / RFU, SNORA58 / Fold change vs veh, SNORA58 / RFU, C1orf63 / Fold change vs veh, C1orf63 / RFU, LRRFIP1 / Fold change vs veh, LRRFIP1 / RFU, NDUFAF7 / Fold change vs veh, NDUFAF7 / RFU, SLC12A2 / Fold change vs veh, SLC12A2 / RFU, IBTK / Fold change vs veh, IBTK / RFU, ESF1 / Fold change vs veh, ESF1 / Fold change vs veh, TMEM50B / RFU, TAOK1 / Fold change vs veh, TAOK1 / RFU, ACBD3 / Fold change vs veh, ACBD3 / RFU, TMA16 / Fold change vs veh, TMA16 / RFU, RWDD3 / Fold change vs veh, RWDD3 / RFU, BCAT1 / Fold change vs veh, BCAT1 / RFU, EDEM3 / Fold change vs veh, EDEM3 / RFU, TMEM33 / Fold change vs veh, TMEM33 / RFU, WDR75 / Fold change vs veh, WDR75 / RFU, AHCTF1 / Fold change vs veh, AHCTF1 / RFU, TFRC / Fold change vs veh, TFRC / RFU, ZDHHC17 / Fold change vs veh, ZDHHC17 / RFU, NOM1 / Fold change vs veh, NOM1 / RFU, ARL8B / Fold change vs veh, ARL8B / RFU, ZBTB11 / Fold change vs veh, ZBTB11 / RFU, TAMM41 / Fold change vs veh, TAMM41 / RFU, KIAA1704 /// LOC100996395 / Fold change vs veh, KIAA1704 /// LOC100996395 / RFU, ING1 / Fold change vs veh, ING1 / RFU, TRMT61B / Fold change vs veh, TRMT61B / RFU, FUBP3 / Fold change vs veh, FUBP3 / RFU, TP53 / Fold change vs veh, TP53 / RFU, TNKS2 / Fold change vs veh, TNKS2 / RFU, ZFP14 / Fold change vs veh, ZFP14 / RFU, ACTR2 / Fold change vs veh, ACTR2 / RFU, PPP3R1 / Fold change vs veh, PPP3R1 / RFU, PIK3R1 / Fold change vs veh, PIK3R1 / RFU, HNRNPA1 / Fold change vs veh, HNRNPA1 / RFU, RNF170 / Fold change vs veh, RNF170 / RFU, ZNF28 / Fold change vs veh, ZNF28 / RFU, RNGTT / Fold change vs veh, RNGTT / RFU, OGT / Fold change vs veh, OGT / RFU, BRD1 / Fold change vs veh, BRD1 / RFU, MARS / Fold change vs veh, MARS / RFU, ZNF655 / Fold change vs veh, ZNF655 / RFU, FAHD1 / Fold change vs veh, FAHD1 / RFU, BDP1 / Fold change vs veh, BDP1 / RFU, LRRCC1 / Fold change vs veh, LRRCC1 / RFU, ARID1A / Fold change vs veh, ARID1A / RFU, ZNF146 / Fold change vs veh, ZNF146 / RFU, ZNF330 / Fold change vs veh, ZNF330 / RFU, GPN3 / Fold change vs veh, GPN3 / RFU, C9orf123 / Fold change vs veh, C9orf123 / RFU, N4BP2L2 / Fold change vs veh, N4BP2L2 / RFU, ARFIP1 / Fold change vs veh, ARFIP1 / RFU, FAM179B / Fold change vs veh, FAM179B / RFU, BCL10 / Fold change vs veh, BCL10 / RFU, UHRF1BP1L / Fold change vs veh, UHRF1BP1L / RFU, BET1 / Fold change vs veh, BET1 / RFU, CNOT2 / Fold change vs veh, CNOT2 / RFU, ZNF268 / Fold change vs veh, ZNF268 / Fold change vs veh, ZNF507 / RFU, DGCR2 / Fold change vs veh, DGCR2 / RFU, WDSUB1 / Fold change vs veh, WDSUB1 / Fold change vs veh, HSP90B1 /// MIR3652 / RFU, ADSS / Fold change vs veh, ADSS / RFU, GK / Fold change vs veh, GK / RFU, ZNF148 / Fold change vs veh, ZNF148 / RFU, TAF9 / Fold change vs veh, TAF9 / RFU, SLC1A5 / Fold change vs veh, SLC1A5 / RFU, SLMO2 / Fold change vs veh, SLMO2 / RFU, ABCC4 / Fold change vs veh, ABCC4 / RFU, LOC101060439 /// RAP1B / Fold change vs veh, LOC101060439 /// RAP1B / RFU, RFX7 / Fold change vs veh, RFX7 / RFU, GTPBP10 / Fold change vs veh, GTPBP10 / RFU, CNEP1R1 / Fold change vs veh, CNEP1R1 / RFU, BIVM-ERCC5 /// ERCC5 / Fold change vs veh, BIVM-ERCC5 /// ERCC5 / RFU, ILF3 / Fold change vs veh, ILF3 / RFU 11762660_at / Fold change /veh 11762660_at / RFU VCAN (11757783_s_at) / Fold change /veh VCAN (11757783_s_at) / RFU DDX43 (11728927_at) / Fold change /veh DDX43 (11728927_at) / RFU KRT8 (11758188_x_at) / Fold change /veh KRT8 (11758188_x_at) / RFU NKD1 (11759106_at) / Fold change /veh NKD1 (11759106_at) / RFU SRD5A1 (11742802_a_at) / Fold change /veh SRD5A1 (11742802_a_at) / RFU TPSAB1 /// TPSB2 (11721975_s_at) / Fold change /veh TPSAB1 /// TPSB2 (11721975_s_at) / RFU GSTM3 (11746129_a_at) / Fold change /veh GSTM3 (11746129_a_at) / RFU IL23R (11737362_x_at) / Fold change /veh IL23R (11737362_x_at) / RFU TMEM51 (11727254_a_at) / Fold change /veh TMEM51 (11727254_a_at) / RFU PIWIL2 (11732686_x_at) / Fold change /veh PIWIL2 (11732686_x_at) / RFU ORM1 (11744905_x_at) / Fold change /veh ORM1 (11744905_x_at) / RFU CCDC152 (11743942_at) / Fold change /veh CCDC152 (11743942_at) / RFU ECM1 (11717891_a_at) / Fold change /veh ECM1 (11717891_a_at) / RFU IL23R (11748794_a_at) / Fold change /veh IL23R (11748794_a_at) / RFU TNFAIP8L3 (11732012_x_at) / Fold change /veh TNFAIP8L3 (11732012_x_at) / RFU MBOAT4 (11741988_at) / Fold change /veh MBOAT4 (11741988_at) / RFU 11764193_at / Fold change /veh 11764193_at / RFU TMEM53 (11763286_at) / Fold change /veh TMEM53 (11763286_at) / RFU MAGEB2 (11727129_at) / Fold change /veh MAGEB2 (11727129_at) / RFU TMEM200A (11744735_a_at) / Fold change /veh TMEM200A (11744735_a_at) / RFU CCDC152 (11751479_a_at) / Fold change /veh CCDC152 (11751479_a_at) / RFU FAM211A (11726209_a_at) / Fold change /veh FAM211A (11726209_a_at) / RFU RGS16 (11746705_a_at) / Fold change /veh RGS16 (11746705_a_at) / RFU VCAN (11755009_s_at) / Fold change /veh VCAN (11755009_s_at) / RFU RHOB (11743442_s_at) / Fold change /veh RHOB (11743442_s_at) / RFU RGS16 (11720943_a_at) / Fold change /veh RGS16 (11720943_a_at) / RFU RGS16 (11720944_at) / Fold change /veh RGS16 (11720944_at) / RFU, VPS4B / Fold change vs veh, VPS4B / RFU, CREB1 / Fold change vs veh, CREB1 / RFU, DNAJC13 / Fold change vs veh, DNAJC13 / RFU, GNAQ / Fold change vs veh, GNAQ / RFU, CDK5R1 / Fold change vs veh, CDK5R1 / RFU, ZRANB3 / Fold change vs veh, ZRANB3 / RFU, CUL4A / Fold change vs veh, CUL4A / RFU, CCNY / Fold change vs veh, CCNY / RFU, UFL1 / Fold change vs veh, UFL1 / RFU, COG3 / Fold change vs veh, COG3 / RFU, DIAPH2 / Fold change vs veh, DIAPH2 / RFU, SKA2 / Fold change vs veh, SKA2 / RFU, AFF3 / Fold change vs veh, AFF3 / RFU, LMF1 / Fold change vs veh, LMF1 / RFU, IPO11 / Fold change vs veh, IPO11 / RFU, DFFB / Fold change vs veh, DFFB / RFU, FOXP1 / Fold change vs veh, FOXP1 / RFU, CARD8 / Fold change vs veh, CARD8 / RFU, STRN3 / Fold change vs veh, STRN3 / RFU, ADK / Fold change vs veh, ADK / RFU, RASSF2 / Fold change vs veh, RASSF2 / RFU, WIPF1 / Fold change vs veh, WIPF1 / RFU, LARP1B / Fold change vs veh, LARP1B / RFU, RASA1 / Fold change vs veh, RASA1 / RFU, RB1 / Fold change vs veh, RB1 / RFU, PPFIA1 / Fold change vs veh, PPFIA1 / RFU, MAT2A / Fold change vs veh, MAT2A / RFU, CCT5 / Fold change vs veh, CCT5 / RFU, WDR92 / Fold change vs veh, WDR92 / RFU, CUX1 / Fold change vs veh, CUX1 / RFU, TTC7A / Fold change vs veh, TTC7A / RFU, TMEM135 / Fold change vs veh, TMEM135 / RFU, DEPTOR / Fold change vs veh, DEPTOR / RFU, CPM / Fold change vs veh, CPM / RFU, DNAJB6 / Fold change vs veh, DNAJB6 / RFU, CACNA2D3 / Fold change vs veh, CACNA2D3 / RFU, DTX4 / Fold change vs veh, DTX4 / RFU, TFCP2 / Fold change vs veh, TFCP2 / RFU, GMCL1 /// GMCL1P1 / Fold change vs veh, GMCL1 /// GMCL1P1 / RFU, AEBP2 / Fold change vs veh, AEBP2 / RFU, SNHG1 /// SNORD22 /// SNORD25 /// SNORD26 /// SNORD27 /// SNORD28 /// SNORD29 /// SNORD31 / Fold change vs veh, SNHG1 /// SNORD22 /// SNORD25 /// SNORD26 /// SNORD27 /// SNORD28 /// SNORD29 /// SNORD31 / Fold change (Aza/veh), C12orf56 (ProbeSet 11735607_a_at) / Fold change (ACY-1035/veh), C12orf56 (ProbeSet 11735607_a_at) / Fold change (Aza/veh), FGFR1OP (ProbeSet 11751329_s_at) / Fold change (ACY-1035/veh), FGFR1OP (ProbeSet 11751329_s_at) / Fold change (Aza/veh), VPS36 (ProbeSet 11739960_a_at) / Fold change (ACY-1035/veh), VPS36 (ProbeSet 11739960_a_at) / RFU SYPL1 (11715823_x_at) / Fold change /veh SYPL1 (11715823_x_at) / RFU IGFBP7 (11715501_s_at) / Fold change /veh IGFBP7 (11715501_s_at) / RFU REEP3 (11722064_at) / Fold change /veh REEP3 (11722064_at) / RFU IGLL1 (11728026_x_at) / Fold change /veh IGLL1 (11728026_x_at): dose or concentration left out as unconfirmed
Details: MV-4-11 cells, 48 hours

Compound: Nc1ccc(-c2cccs2)cc1NC(=O)c1ccc2c(c1)cc(C1CC1)n2CCN1CCOCC1 [ACY-1035]
- Fold change /veh CASKIN2 (11723855_a_at): 1.05
